This note sets out measurements from PubChem BioAssay (NCI).

Structures are written as SMILES.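 Each compound was tested at five concentrations against cells in 96-well plates for 48 hours. TGI: total growth inhibition.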 A value given as a limit tells only on which side of the number the result lay.

Common to all, as to test: NCI anticancer screen, dose series, 48 h
The test system of assay [1] is RPMI-8226 leukemia.
The subject of assay [2] is OVCAR-5 ovarian.
Assay [3] relates to A549 NSCLC.
Assay [4] relates to SW-620 colon.
Assay [5] has as its system SK-MEL-28 melanoma.
Assay [6] deals with SF-539 CNS.
Assay [7] concerns HCT-15 colon.
In assay [8] the test system is NCI/ADR-RES ovarian.
Assay [9] concerns MOLT-4 leukemia.
Assay [10] concerns UACC-257 melanoma.
The test system of assay [11] is SK-MEL-5 melanoma.
The test system of assay [12] is LOX IMVI melanoma.
Assay [13] relates to U251 CNS.

As to `CC1C[C@]2(C)C(=O)N(c3ccccc3)C(=N)[C@@H]2N(C)c2ccccc21` (stereo partly specified), the TGI in assay [1], in assay [2], in assay [3], in [4], in [5] and in [6] was greater than 100 µM each time. Further, the TGI in [7], in [8], in assay [9], in [10], in [11] and in [12] was greater than 100 µM in each case.

`Cc1nnc2n1-c1ccccc1C(=S)N1CSCC21` (stereo unspecified): the TGI in assay [1], in assay [2], in assay [3], in assay [4], in [5] and in assay [7] was greater than 100 µM throughout. Also, the TGI in assay [13], in [8], in assay [9], in assay [10], in assay [11] and in assay [12] was greater than 100 µM throughout.

`CN(CCc1ccc(N)cc1)[C@H]1CCCC[C@H]1N1CCCC1`: the TGI in assay [1], in assay [2], in [3], in [4], in assay [5] and in assay [7] was greater than 100 µM in each case. Besides, the TGI in assay [13], in assay [8], in [9], in [10], in assay [11] and in assay [12] was greater than 100 µM throughout.

On to `CC[C@H]1OC([C@H](O)C/C=C\C#C[Si](C)(C)C)C/C=C\C[C@H]1O[Si](C)(C)C(C)(C)C` (stereo partly specified), for which the TGI in assay [1], in assay [2], in assay [3], in assay [4], in [5] and in assay [7] was greater than 100 µM each time. The TGI in assay [13] was greater than 100 µM; in [8], greater than 100 µM; in assay [9], greater than 100 µM; in assay [11], greater than 100 µM; in assay [12] it was 36.3 µM.

For `Nc1nc(Cl)cc(Nc2cc(Cl)cc(Cl)c2)n1`, the TGI stood at 66.3 µM in assay [1]; 76.7 µM in assay [2]; 58.9 µM in assay [3]; 41.1 µM in [4]; 33.9 µM in assay [6]; 42.6 µM in [7]. In addition, the TGI in [13] is 38.4 µM; in [8], 44 µM; in assay [9] it was 47.6 µM; in [10] it was 32.8 µM; in assay [11], 33.9 µM; in assay [12], 32.3 µM.

For the molecule `N#Cc1ccc(OCc2nc3cc(C(F)(F)F)ccc3nc2-c2ccccc2)cc1`, the TGI in [1], in assay [2], in assay [3], in assay [4], in assay [5] and in assay [6] was greater than 100 µM throughout. Moreover, the TGI in assay [13], in assay [8], in assay [9], in assay [10], in assay [11] and in assay [12] was greater than 100 µM each time.

For the molecule `S=c1[nH]c(=S)c2cc(Sc3ccc4[nH]c(=S)[nH]c(=S)c4c3)ccc2[nH]1`, the TGI in [1] is 54.9 µM; in assay [2], greater than 100 µM; in [3], greater than 100 µM; in [4] it was greater than 100 µM; in [5], greater than 100 µM; in assay [6], 82.8 µM. In addition, the TGI in assay [7], in [13], in assay [8], in [9], in assay [10] and in assay [11] was greater than 100 µM in each case.

Consider `C(=C\C(SCc1ccccc1)SCc1ccccc1)/c1ccccc1`, for which the TGI in assay [1], in assay [3], in [4], in assay [5], in assay [6] and in assay [7] was greater than 10 µM in each case. In addition, the TGI in assay [13], in assay [8], in assay [9], in assay [10], in assay [11] and in assay [12] was greater than 10 µM each time.

As to `S=C1N=C(Cl)C2(NN1)c1ccccc1-c1ccccc12`, the TGI in assay [1], in [3], in [4], in assay [5], in [6] and in [7] was greater than 10 µM each time. In addition, the TGI in assay [13], in [8], in [9], in assay [10], in assay [11] and in assay [12] was greater than 10 µM each time.

Consider `C=CC[C@H](C)CCC(=O)N1[C@H]2CC3CC[C@@]2(CS1(=O)=O)C3(C)C`, for which the TGI in assay [1] is greater than 100 µM; in [2] it was greater than 100 µM; in [3], greater than 100 µM; in [4], greater than 100 µM; in assay [5], greater than 100 µM; in [7], 74.9 µM. The TGI in [13] was greater than 100 µM; in assay [8], greater than 100 µM; in assay [9] it was 68.1 µM; in [10] it was greater than 100 µM; in assay [11], 51.3 µM; in [12], 83 µM.

On to `O=C1CCCCc2cccc(O)c21`, for which the TGI in [1], in assay [2], in assay [4], in assay [5], in [6] and in assay [7] was greater than 100 µM each time. The TGI in assay [13], in assay [8], in assay [9], in assay [10], in assay [11] and in assay [12] was greater than 100 µM in each case.
